In patent US11576892B2, “Benzopyran derivatives and uses thereof” (Novation Pharmaceuticals Inc., priority 2015, dated 2023):

Assays:
[1] = tested on: IFNγ release from PBMCs; assay: IFNγ release from PBMCs measured by ELISA; format: cell-based; conditions: 5 μM, human PBMCs
Method: (§1) Mononuclear cells are obtained from the blood of healthy volunteers via centrifugation and cultivated on tissue culture dishes with the test compound at various concentrations Schnyder, Bollinger et al. (1990). Inhibition of interleukin-1 release by IX 207-887. Agents Actions. 30: 350-362. Fresh human mononuclear cells were isolated on Ficoll-Paque gradient and washed several times. Fresh medium, test compound and LPS (10 μg/ml) or PHA (5 μg/ml) as stimulant are added and the monocytes incubated for a further day. The media are then removed and clarified by centrifugation at 1000×g for 10 min. Samples are stored at […] until the determinations can be made. IFNγ, IL 1β, IL 6, and IL-17 are determined using commercially available ELISA kits.

[2] = tested on: IL-17 release from PBMCs; assay: IL-17 release from PBMCs measured by ELISA; format: cell-based; conditions: human PBMCs
Method: as §1

[3] = tested on: IL-1β release from THP 1 cells; assay: IL-1β release from THP 1 cells measured by ELISA; format: cell-based, human; conditions: IFNγ/LPS-stimulated THP 1 cells
Method: (§2) The THP 1 cell line is generally available and is described by Tsuchia et. al. Tsuchiya, Yamabe et al. (1980). Establishment and characterization of a human acute monocytic leukemia cell line (THP-1). Int J Cancer. 26: 171-176.
(§3) 900 μl THP 1 cells (0.5×10^6 cells) together with 100 Uγ interferon/0.9 ml RPMI 1640 medium (containing 2 mM L glutamine and 5% heat inactivated fetal calf serum) are pipetted into 24-well culture plates. 100 μl of the compound to be tested are then added. After 3 hours at 37° C. in 5% CO2/95% air, 10 μl lipopolysaccharide (LPS) 500 μg/ml is added and the incubation continued for a further 24 hours. Appropriate controls (with and without stimulus, solvent) are also included. The media are then removed and clarified by centrifugation at 1000 g for 10 min. Samples are stored at […] until the determinations can be made. IL 1β, IL 6 IL-12, and IL-23 assays are determined using commercially available ELISA kits. In these tests, the compounds of the disclosure may inhibit IL-1β, IL-6, IL-12 and IL-23 release at a concentration of about 10 to 50 μM. The compounds are non-toxic based on resazurin measurements as described in Didiot, Hewett et al. (2013). Identification of cardiac glycoside molecules as inhibitors of c-Myc IRES-mediated translation. J Biomol Screen. 18: 407-419.

[4] = tested on: IL-12 p40 mRNA; assay: mRNA stability reporter gene (luciferase) assay, IL-12 p40; format: cell-based; conditions: 10 μM, 24 h, n.a. = no activity
Method: (§4) The basic principle of a reporter gene assay for determining compounds that destabilize mRNA is described in detail in WO 00/39314. A number of these assays for various drug targets have been developed and were tested with the compounds described in this disclosure. For THP-1 cells, compound is added at the time of the addition of LPS and luciferase measurements are taken 24 hours later or as indicated. For other cell lines, cells were plated in 96 well plates at 5*10^5 cells per 100 ul per well and incubated over night at 37° C. Compounds were then added and luciferase activity was measured after 24 hours. The activity was compared to other mRNA stability assays established for a range of other drug targets and found to be specific for IL-6, IL-12p40 and IL-23p19. Luciferase activity in the IL-6, IL-12 and IL-23 assays was inhibited by 10 μM benzopyran derivatives by >40% (Table IV).

[5] = tested on: IL-4; assay: LPS-induced cytokine release in mice, serum IL-4; format: in vivo; conditions: 100 mg/kg pre-treatment; serum 4 h post LPS; CD-1 mouse
Method: (§5) Compounds were evaluated on intra-peritoneal LPS-induced cytokine release measured in serum in the CD-1 mouse. Vehicle, Test item and positive control were administered 1 h before LPS injection as well 30 min post LPS injection (except as otherwise varied herein). In serum samples collected at 4 h post LPS injection, following cytokines were measured by multiplex on MSD 10 V-plex platform: TNF-alpha, IFN-gamma, IL-1beta, IL-2, IL-4, IL-5, IL-6, IL-10, IL-12, KC/GRO. All cytokines except IL-5 were induced by LPS injection (compared with saline injection).
(§6) Serum samples collected at 4h post LPS challenge were analyzed in duplicate wells using multiplex on MSD 10 V-plex platform. […] FIG. 1: Effect of test compounds 333 (TI1) and 1781 (TI2) on IFN-gamma levels in serum of LPS treated mice. FIG. 2: Effect of test compounds 333 (TI1) and 1781 (TI2) on IFN-gamma levels in serum of LPS treated mice (values of individual animals)

[6] = tested on: IL-1β release from PBMCs; assay: IL-1β release from PBMCs measured by ELISA; format: cell-based; conditions: LPS or PHA stimulated human PBMCs
Method: as §1

[7] = tested on: IL-23 release from THP 1 cells; assay: IL-23 release from THP 1 cells measured by ELISA; format: cell-based, human; conditions: IFNγ/LPS-stimulated THP 1 cells
Method: as §2, §3

[8] = tested on: IL-12; assay: LPS-induced cytokine release in mice, serum IL-12; format: in vivo; conditions: 100 mg/kg pre-treatment; serum 4 h post LPS; CD-1 mouse
Method: as §5, §6

[9] = tested on: IL-6 mRNA; assay: IL-6 mRNA levels in IFN-γ/LPS-stimulated THP-1 cells (RT-PCR); format: cell-based, human; conditions: γIFN/LPS, 24h, compounds 10 μM, RT-PCR vs β-actin
Method: Total RNA was isolated at t=24 h from IFN-γ/LPS-stimulated THP-1 cells exposed to compounds (10 μM) or DMSO (solvent control) for 24 […], using the RNeasy Midi Kit (Qiagen), according to the manufacturer's instructions, and eluted in DEPC-treated Milli-Q H2O. Quantity and purity of RNA were determined by absorbance at 260 and 280 nm.
For RT-PCR analysis, 1 μg of total RNA was reverse transcribed using AMV reverse transcriptase (Life Sciences Inc., St. Petersburg, Fla.), then amplified by the PCR method. Each PCR reaction also contained a set of β-actin primers as internal control. The levels of the expected PCR product were compared to the constant levels of β-actin. The size of the PCR products was compared to MspI digested pBR322 standards (New England Biolabs). PCR products were analyzed on a 4% agarose gel.
Nucleotide sequences for the oligonucleotide 5′ and 3′ primers, respectively, were: […]

[10] = tested on: IL-6 release from THP 1 cells; assay: IL-6 release from THP 1 cells measured by ELISA; format: cell-based, human; conditions: IFNγ/LPS-stimulated THP 1 cells, 24 h
Method: as §2, §3

[11] = tested on: TNF-alpha; assay: LPS-induced cytokine release in mice, serum TNF-alpha; format: in vivo; conditions: 100 mg/kg pre-treatment; serum 4 h post LPS; CD-1 mouse
Method: as §5, §6

[12] = tested on: IFN-gamma; assay: LPS-induced cytokine release in mice, serum IFN-gamma; format: in vivo; conditions: 100 mg/kg pre-treatment; serum 4 h post LPS; CD-1 mouse
Method: as §5, §6

[13] = tested on: IL-6 mRNA; assay: mRNA stability reporter gene (luciferase) assay, IL-6; format: cell-based; conditions: luciferase reporter, 24 h
Method: as §4

[14] = tested on: IL-23 p19 mRNA; assay: mRNA stability reporter gene (luciferase) assay, IL-23 p19; format: cell-based; conditions: 10 μM, 24 h, n.a. = no activity
Method: as §4

[15] = tested on: IL-6 release from PBMCs; assay: IL-6 release from PBMCs measured by ELISA; format: cell-based; conditions: LPS or PHA stimulated human PBMCs
Method: as §1

In the case of `CC(=O)Oc1ccc2c(=O)c(Oc3ccc(C(=O)O)cc3)coc2c1` [Compound 276], the “IFNγ release from PBMCs, % control (24 h)” value [1] is reported as 100 % control, the “IL-17 release from PBMCs, % control (48 h)” value ([2]; 2.5 μM) is reported as 79 % control and the “IL-17 release from PBMCs, % control (48 h)” value ([2]; 5 μM) is reported as 46 % control. The “IL-17 release from PBMCs, % control (48 h)” value ([2]; 10 μM) was 57 % control.
In the case of `COC(=O)c1ccc(Oc2coc3cc(O)ccc3c2=O)cc1` [Compound 333, methyl 4-[(7-hydroxy-4-oxo-4H-chromen-3-yl)oxy]benzoate], the “IL-1β release from THP 1 cells, % control at 10 μM” value [3] is reported as 49 % control, the “IFNγ release from PBMCs, % control (24 h)” value [1] is reported as 43 % control and the “IL-12 p40 mRNA stability assay (% inhibition)” value [4] is reported as 72 % inhibition. For the same molecule, the “Effect on serum IL-4” value [5] was “trend of effect”, the “IL-1β release from PBMCs (% control)” value ([6]; 2.5 μM) was 105 % control and the “IL-1β release from PBMCs (% control)” value ([6]; 5 μM) was 91 % control. The “IL-1β release from PBMCs (% control)” value ([6]; 10 μM) was 58 % control, the “IL-1β release from PBMCs (% control)” value ([6]; 20 μM) was 45 % control and the “IL-23 release from THP 1 cells, % control at 10 μM” value [7] was 68 % control. The “Effect on serum IL-12” value [8] was “trend of effect”, the “IL-17 release from PBMCs, % control (48 h)” value ([2]; 2.5 μM) was 93 % control and the “IL-17 release from PBMCs, % control (48 h)” value ([2]; 5 μM) was 80 % control. The “IL-17 release from PBMCs, % control (48 h)” value ([2]; 10 μM) was 41 % control, the “IL-6 mRNA analysis, % ctrl” value [9] was 94 % ctrl and the “IL-6 release from THP 1 cells, % control” value ([10]; 10 μM) was 48 % control. For the same molecule, the “IL-6 release from THP 1 cells, % control” value ([10]; 40 μM) was 43 % control, the “IL-6 release from THP 1 cells, % control” value ([10]; 100 μM) was 35 % control and the “Effect on serum TNF-alpha” value [11] was “trend of effect”. The “Effect on LPS-induced increase in serum IFN-gamma level” value [12] was “significantly blocked”, the IC50 [13] was 2510 nM and the “IL-23 p19 mRNA stability assay (% inhibition)” value [14] was 76 % inhibition. The “IL-6 release from PBMCs (% control)” value ([15]; 2.5 μM) was 121 % control, the “IL-6 release from PBMCs (% control)” value ([15]; 5 μM) was 158 % control and the “IL-6 release from PBMCs (% control)” value ([15]; 10 μM) was 176 % control. The “IL-6 release from PBMCs (% control)” value ([15]; 20 μM) was 68 % control.
